Measured values reported in PubChem BioAssay (NCI).
Where “and” joins values, the source holds several entries; their conditions need not be identical. Equal entries are not always repeated.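 Cells were grown in 96-well plates and exposed to each compound for 48 hours at five concentrations; endpoints were interpolated linearly between bracketing concentrations, or set to the highest concentration if not reached. GI50 is the concentration that inhibits growth by half. TGI is the concentration that stops growth completely.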

Tests used:
Assay in all cases: growth of human tumour cells (NCI), 48 h
[1] = test system: SK-MEL-2 melanoma
[2] = test system: MOLT-4 leukemia
[3] = test system: NCI-H460 lung
[4] = test system: KM12 colon
[5] = test system: HCC-2998 colon
[6] = test system: CAKI-1 renal
[7] = test system: SW-620 colon
[8] = test system: NCI-H23 lung
[9] = test system: NCI-H522 lung
[10] = test system: OVCAR-4 ovarian

Structure (SMILES)	GI50 [1]	TGI [1]	GI50 [2]	TGI [2]	GI50 [3]	TGI [3]	GI50 [4]	TGI [4]	GI50 [5]	TGI [5]	GI50 [6]	TGI [6]	GI50 [7]	TGI [7]	GI50 [8]	TGI [8]	GI50 [9]	TGI [9]	GI50 [10]	TGI [10]
C/C(=C(\c1ccc(OCCN2CCCCCC2)cc1)c1ccc(OC(=O)Cc2ccccc2)cc1)c1ccc(Cl)cc1	3.98 µM	8.72 µM	3.09 µM	13.4 µM	2.64 µM	5.2 µM	2.72 µM	5.77 µM	2.72 µM	5.57 µM	2.74 µM	5.37 µM	2.56 µM	5.25 µM	2.81 µM	7.13 µM	3.6 µM	6.87 µM	2.82 µM	7.05 µM
C=C(C)[C@@H]1CC[C@]2(CO)CC[C@]3(C)[C@H](CC[C@@H]4[C@@]5(C)CCC(NCCc6ccc(O)cc6)C(C)(C)[C@@H]5CC[C@]43C)[C@@H]12 (some centres not stated)	1.68 µM	3.19 µM	1.38 µM	3.38 µM	1.53 µM	3 µM	1.64 µM	3.29 µM	0.97 µM	2.23 µM	1.54 µM	2.88 µM	1.41 µM	2.89 µM	1.79 µM	3.35 µM	1.72 µM	3.33 µM	1.7 µM	3.18 µM
C=C1C(=O)O[C@@H]2C1C[C@@H](O)C(=C)CC/C=C(\C)CCC[C@H](C)[C@H]2OC(C)=O (some centres not stated)	12.9 µM	31.1 µM	2.54 µM	5.9 µM	18.2 µM	41.4 µM	11.4 µM	26 µM	15.4 µM	29.2 µM	4.06 µM	14.7 µM	3.81 µM	13.6 µM	3.71 µM	15 µM	3.55 µM	12.7 µM	4.65 µM	28 µM
O=c1c2c3c(sc2nc(N/N=C/c2ccc(Br)cc2)n1Cc1ccccc1)CCCC3	6.08 µM	> 100 µM	3.81 µM	> 100 µM	10.2 µM	> 100 µM	> 100 µM	> 100 µM	> 100 µM	> 100 µM	74.3 µM	> 100 µM	46.2 µM	> 100 µM	> 100 µM	> 100 µM	7.21 µM	> 100 µM	9.67 µM	> 100 µM
COc1cccc2c1c(C1=C(c3cn(C)c4ccccc34)C(=O)NC1=O)cn2C	> 25 µM	> 25 µM	> 25 µM	> 25 µM	> 25 µM	> 25 µM	> 25 µM	> 25 µM	> 25 µM	> 25 µM	> 25 µM	> 25 µM	> 25 µM	> 25 µM	> 25 µM	> 25 µM	> 25 µM	> 25 µM	> 25 µM	> 25 µM
C[C@H](CCCNCCCNCCCN)[C@H]1CC[C@H]2[C@@H]3[C@H](OCCCN)C[C@H]4C[C@H](OCCCN)CC[C@]4(C)[C@H]3C[C@H](OCCCN)[C@]12C	47.5 µM	> 100 µM	1.09 µM	8.12 µM	4.72 µM	> 34.7 µM	0.355 µM	6.05 µM	0.653 µM	5.02 µM	16 µM	> 100 µM	0.98 µM	8.2 µM	1.48 µM	10.8 µM	11.1 µM	58.6 µM	> 45.2 µM	> 100 µM
CCS(=O)(=O)Nc1cccc(Nc2c3cccc(C)c3nc3c(C)cccc23)c1OC	10.5 µM	59.8 µM	0.166 µM	4.23 µM	0.104 µM	4.6 µM	2.26 µM	> 31.2 µM	2.99 µM	> 71.1 µM	0.347 µM	15.8 µM	0.979 µM	> 100 µM	0.653 µM	> 100 µM	2.58 µM	19.5 µM	9.78 µM	> 75.8 µM
CCOC(=O)[C@@H](C)C[C@H](Cc1ccccc1)NC(=O)c1csc([C@@H](C[C@H](C(C)C)N(C)C(=O)[C@H](CC)NC(=O)[C@H]2CCCCN2C)OC(C)=O)n1	< 0.00167 µM	> 16.7 µM	0.00896 µM	> 16.7 µM	< 0.00167 µM	> 16.7 µM	< 0.00167 µM	> 16.7 µM	0.00267 µM	> 5.64 µM	< 0.00167 µM	> 16.7 µM	< 0.00167 µM	> 16.7 µM	0.00476 µM	> 16.7 µM	< 0.00167 µM	0.362 µM	0.00397 µM	> 16.7 µM
O=C(NCc1ccco1)c1ccc(NC2=C(Cl)C(=O)N(Cc3ccccc3)C2=O)cc1	23.8 µM	55.8 µM	14.7 µM	38 µM	26.7 µM	> 100 µM	17.2 µM	36.2 µM	22.9 µM	37.4 µM	1.84 µM	3.39 µM	51.7 µM	> 100 µM	13.8 µM	27.5 µM	19.5 µM	57.9 µM	51.3 µM	> 100 µM
CC[C@@]1(O)C(=O)OCc2c1cc1n(c2=O)Cc2c-1nc1cc3c(cc1c2C)OCO3		0.0271 µM	< 0.0001 µM		< 0.0001 µM	0.0868 µM and 0.0135 µM	0.0241 µM	> 100 µM	0.00109 µM	0.0837 µM and 0.141 µM	< 0.0001 µM	0.235 µM and 0.122 µM	< 0.0001 µM	> 100 µM	< 0.0001 µM	0.105 µM and 0.0116 µM	0.000159 µM		0.0244 µM and 0.0174 µM	> 100 µM
O=C(NCc1ccncc1)C12CC3CC(C1)CC(c1ccc(Cl)cc1)(C3)C2	14.2 µM	28.1 µM	8.15 µM	27.2 µM	14.8 µM	28.6 µM	13.6 µM	27.8 µM	14.3 µM	29.4 µM	11.9 µM	24.9 µM	13.7 µM	28.5 µM	14.4 µM	32.7 µM	13.5 µM	28.8 µM	10.9 µM	32.8 µM
CC(C)(C)OC(=O)NC(CO)c1cccc(OCc2ccccc2)c1 (configuration not stated)		> 100 µM		> 100 µM		> 100 µM		> 100 µM		> 100 µM		> 100 µM		> 100 µM		> 100 µM		> 100 µM		> 100 µM
CCOC(=O)C(C)(C)C(O)C(C)C (configuration not stated)		> 100 µM		> 100 µM		> 100 µM		> 100 µM		> 100 µM		> 100 µM		> 100 µM		> 100 µM		> 100 µM		> 100 µM
O=C1CC(O)(c2ccccc2)C(c2ccccc2)=C1c1ccccc1 (configuration not stated)		> 100 µM		81.5 µM		> 100 µM		> 100 µM		> 100 µM		> 100 µM		> 100 µM		> 100 µM		54.1 µM		> 100 µM
Cc1ccc(-c2nc(N3CCCNCC3)c3oc(-c4ccccc4)nc3n2)cc1	2.03 µM	3.77 µM	1.79 µM	3.58 µM	1.85 µM	3.5 µM	1.89 µM	3.45 µM	1.82 µM	3.27 µM	1.65 µM	3.03 µM	1.68 µM	3.21 µM	1.95 µM	3.71 µM	1.72 µM	3.29 µM	1.82 µM	3.55 µM
CCc1cc2c(cc1N1CCC(N3CCOCC3)CC1)C(C)(C)c1[nH]c3cc(C#N)ccc3c1C2=O	2.62 µM and 2.86 µM and 5.46 µM	9.13 µM and 9.77 µM and > 10 µM	1.57 µM and 0.973 µM and 1.38 µM	> 100 µM and 14.7 µM and > 10 µM	1.47 µM and 1.74 µM and 1.68 µM	4.03 µM and 4.17 µM and 7.64 µM	0.336 µM and 0.345 µM and 0.347 µM	5.36 µM and 3.41 µM and > 10 µM	4.33 µM and 3.73 µM	> 43.7 µM and 17.8 µM and > 10 µM	1.26 µM and 1.28 µM and 1.13 µM	12.4 µM and 4.57 µM and 3.87 µM	0.924 µM and 1.26 µM and 1.08 µM	> 21.8 µM and 22 µM and > 10 µM	2.8 µM and 3.45 µM and 5.94 µM	38.6 µM and 20 µM and > 10 µM	1.17 µM and 1.69 µM and 1.48 µM	3.81 µM and 4.88 µM and 5.85 µM	0.648 µM and 1.35 µM and 1.63 µM	2.26 µM and 2.86 µM and 3.59 µM
NC1=NCCN1CC(=O)O	> 10000 µM	> 10000 µM	> 10000 µM	> 10000 µM	> 10000 µM	> 10000 µM		> 10000 µM	> 10000 µM	> 10000 µM		> 10000 µM	> 10000 µM	> 10000 µM	> 10000 µM	> 10000 µM		> 10000 µM	> 10000 µM	> 10000 µM
C[n+]1ccc(-c2c3nc(c(-c4cc[n+](C)cc4)c4ccc([n-]4)c(-c4cc[n+](C)cc4)c4nc(c(-c5cc[n+](C)cc5)c5ccc2[n-]5)C=C4)C=C3)cc1.[I-].[Zn+2]	19.1 µM	47.3 µM	28.4 µM	> 100 µM	23.5 µM	53.5 µM	23.3 µM	69.5 µM	49.6 µM	> 100 µM	20 µM	41.7 µM	24.1 µM	45.7 µM	26.8 µM	59.2 µM	1.61 µM	9.88 µM	2.43 µM	10.4 µM
Nc1c(C(=O)c2ccc(CCCN3CCOCC3)cc2)cnn1-c1ccc(F)cc1	> 25 µM	> 25 µM	> 25 µM	> 25 µM	> 25 µM	> 25 µM	> 25 µM	> 25 µM	> 25 µM	> 25 µM	> 25 µM	> 25 µM	> 25 µM	> 25 µM	> 25 µM	> 25 µM	> 25 µM	> 25 µM	> 19.1 µM	> 25 µM
COc1ccc(-c2c(-c3cc(OC)c(OC)c(OC)c3)noc2N)cc1	0.0188 µM	81.4 µM	0.0312 µM	10.4 µM	< 0.015 µM	> 33.8 µM	< 0.01 µM	> 36.6 µM	0.0197 µM	25.1 µM	< 0.01 µM	> 100 µM	< 0.01 µM	> 100 µM	0.0198 µM	30 µM	< 0.01 µM		0.0249 µM	57.5 µM
O=C(CCC(C(=O)c1ccccc1)c1ccccc1)c1ccccc1 (configuration not stated)	7.07 µM	46.7 µM	5.75 µM	> 100 µM	6.5 µM	> 100 µM	3.94 µM	> 100 µM	29.7 µM	> 100 µM	5.7 µM	> 100 µM	3.75 µM	> 100 µM	10.8 µM	> 100 µM	2.64 µM	8.98 µM	16.5 µM	> 100 µM
COC(=O)[C@H](Cc1ccc(O)cc1)NC(=O)[C@@H](OC)[C@@H]1Cc2cc3cc(OC4CC(OC5CC(O)C(O)C(C)O5)C(O)C(C)O4)c(C)c(O)c3c(O)c2C(=O)[C@H]1OC1CC(OC2CC(OC3CC(C)(O)C(O)C(C)O3)C(O)C(C)O2)C(O)C(C)O1 (some centres not stated)	0.1 µM	0.748 µM	0.126 µM	> 25 µM	0.0604 µM	> 25 µM	0.106 µM	> 25 µM	0.172 µM	0.758 µM	0.45 µM	> 25 µM	0.0902 µM	> 25 µM	0.104 µM	> 25 µM	0.0584 µM	> 25 µM	0.178 µM	> 25 µM
C/C(=C\COc1c2c(cc3c1CCO3)OC1(C=C2)OC(CC/C(C)=C/COc2c3ccoc3cc3oc(=O)ccc23)C(C)(C)O1)CCC(O)C(C)(C)O (configuration not stated)	9.58 µM	> 100 µM	4.76 µM	53.1 µM	9.65 µM	> 100 µM	11.7 µM	> 100 µM	89.6 µM	> 100 µM	8.07 µM	> 100 µM	62.3 µM	> 100 µM	33.7 µM	> 100 µM	24.3 µM	> 100 µM	6.23 µM	> 100 µM
CCCCCCCCCCCCCCCCOP(=O)(O)OP(=O)(O)OCC1OC(n2ccc(N)nc2=O)C(O)C1O (configuration not stated)		> 100 µM		> 100 µM		> 100 µM		> 100 µM	> 100 µM and 36.8 µM	> 100 µM	> 100 µM and 26.1 µM	> 100 µM		> 100 µM	> 100 µM and 38 µM	> 100 µM	> 100 µM	> 100 µM		> 100 µM
COc1ccc2c(c1OC)OCC(CN(C)C)C2=O (configuration not stated)		30.5 µM		5.32 µM		> 66.6 µM		33.9 µM		33.7 µM		11.3 µM		26.4 µM		35.8 µM		0.472 µM		60.5 µM
